In one test the test system is intra-tumor immune cells. Put plainly: EdU incorporation in intra-tumor immune cell populations of MC38 tumor-bearing mice (Example 10). Format: in vivo, C57BL/6 mice. Particulars: one dose 100 mg/kg IP; EdU 6 to 48 hours after treatment; FIGS. 21, 22. The method, then:
MC38 tumor-bearing C57BL/6 mice were treated with one dose of Compound I (100 mg/kg, IP), followed by in vivo EdU (5-ethynyl-2′-deoxyuridine, 200 μg/mouse, IP) incorporation 6 to 48 hours after treatment with Compound I. Eighteen hours after EdU dosing, mice were euthanized and tumors were harvested for analysis. Tumors were processed to single-cell suspensions, followed by depletion of dead cells and enrichment of CD45+ immune cells prior to antibody labeling for various lymphoid and myeloid immune cell populations defined as follows: CD8+ T cells (CD4−CD8+), CD4+ T cells (CD4+CD8−Foxp3−), Tregs (CD4+CD8−Foxp3+), NK (CD3−NK1.1+), monocytic myeloid derived suppressor cells (mMDSCs, CD11b+Ly6C+Ly6G−), granulocytic myeloid derived suppressor cells (gMDSCs, CD11b+Ly6C+Ly6G+), and macrophages (CD11b+Ly6C−Ly6G−). After cell surface staining, cell samples were fixed and EdU incorporation was detected by click chemistry followed by flow cytometric analysis. Inhibition of proliferation is represented as the (% EdU+ in Compound I treated)/(% EdU+ in vehicle treated)×100 for each cell population at each time point.

Another test deals with MC38 tumor cells. Format: in vivo. Particulars: dosing schedule not given, anti-PD-1 combination study. The method, then: For all xenograft studies, nine-week old female C57BL/6 mice (C57BL/6NCrl) were implanted with MC38 tumor cells and treatment was initiated when mean tumor volume was approximately 100 mm^3. Compound I was administered in combination with oxaliplatin and […] according to the Induction and Maintenance (IM) dosing schedule, which is shown in FIG. 3.
Briefly, Compound I (100 mg/kg) and oxaliplatin (10 mg/kg) were administered intraperitoneally (IP) once weekly for three doses and mouse […] (5 mg/kg, IP) was given twice weekly starting on Day 1 and continuing through the end of study.
Single, two, and three drug combinations were tested and Compound I was administered 30 minutes prior to chemotherapy treatment. Complete response (CR) and partial response (PR) were calculated using standard Charles River Laboratories (CRL; RTP, NC) criteria. Body weight (BW) and health were monitored, and tumor volume was measured twice weekly. The individual tumor volume endpoint was 1000 mm^3 or Day 100, whichever came first.

In a further test the test system is CD8+ T cells. Put plainly: CFSE proliferation of CD8+ T cells in the presence of Tregs treated with Compound I (Example 9). Particulars: splenocytes stimulated with anti-CD3/CD28 72 hours; FIG. 20. The test is classed as cell-based, C57BL/6 mice. On the procedure: (§1) CD4+CD25+ Tregs were purified from spleens of C57BL/6 mice using a two-step magnetic bead separation process-depletion of all non-CD4+ cells followed by positive selection of CD25+ cells. Purified Tregs were cultured ex-vivo with […] antibodies and IL-2 for 48 hours with either 0, 250, or 1000 nM trilaciclib. […] The percentage of phospho-Rb+ Tregs was defined as phospho-Rb+ cells in the CD4+Foxp3+ population. […] CFSE-labeled splenocytes were stimulated ex-vivo with anti-CD3/CD28 antibodies for 72 hours in the presence or absence of Tregs treated with Compound I. Cells were stained with anti-CD4 and CD8 antibodies, and T cell proliferation was assessed by the dilution of the mean fluorescence intensity of CFSE in CD4-CD8+ T cells by flow cytometric analysis. Percent proliferation was calculated as (mean CFSE intensity of CD8+ T cells stimulated in the absence of Tregs)/(mean CFSE intensity of CD8+ T cells stimulated in the presence of Tregs)×100, the results of which are shown in FIG. 19 and FIG. 20.

A further test deals with CDK4/6-Rb pathway. As to the kind of experiment: Phospho-Rb in purified Tregs cultured ex vivo, flow cytometry (Example 9). The test is classed as cell-based, C57BL/6 mice. Particulars: 0, 250 or 1000 nM, 48 hours; FIG. 19. On the procedure:
as §1
Background: A flow cytometer gives signals particle by particle.

The next test deals with MC38 tumors. Put plainly: Whole-tumor gene expression, PanCancer Immune Profiling Panel, two weekly doses (Examples 12 and 14). Format: in vivo, C57BL/6 mice. The settings on record: two weekly doses 100 mg/kg IP, p <0.05, absolute fold change >1.3. On the procedure: MC38 tumor-bearing C57BL/6 mice were treated with two weekly doses of Compound I (100 mg/kg, IP). One day after the last dose, mice were euthanized and tumors were harvested for analysis. Gene expression analysis was performed on whole tumors using the PanCancer Immune Profiling Panel. Normalized and Log 2 transformed expression values were used for identification of differentially expressed genes, defined using a p-value cutoff of <0.05 and absolute fold change >1.3.

The next test has as its system CT26 tumor. As to the kind of experiment: CT26 tumor growth in mice (Example 7). The settings on record: Compound I added to an anti-PD-L1/oxaliplatin regimen. Format: in vivo. On the procedure: CT26 bearing mice are treated with Compound I (IP, 100 mg/kg, weekly×3), anti-PD-L1 (IP, 5 mg/animal, biweekly to end), and/or oxaliplatin (IP, 10 mg/kg, weekly×3) and tumors were evaluated.

Another test concerns MC38 tumor. As to the kind of experiment: MC38 tumor volume under continuous daily dosing of Compound I with or without anti-PD-L1 (Example 16). Particulars: continuous Compound I (daily x 28 days, IP, 100 mg/kg) added to anti-PD-L1; FIG. 38. The test is classed as in vivo, mice. The method, then:
MC38 tumor-bearing mice were treated with Compound I (daily×28 days, IP, 100 mg/kg) with or without anti-PD-L1 (biweekly×2 weeks, IP, 100 ug/animal) and tumor volume was evaluated.

Consider `CN1CCN(c2ccc(Nc3ncc4cc5n(c4n3)C3(CCCCC3)CNC5=O)nc2)CC1` [Compound I, trilaciclib], for which the “proliferation of intra-tumor lymphoid and myeloid immune cell populations (EdU)” value in the test on intra-tumor immune cells is “transient and reversible inhibition of cell proliferation”. Also, in the test with MC38 tumor cells, the “Complete Response %” value worked out at 10%, the “Objective Response Rate %” value came out at 20%, the “Overall Survival (OS)” value amounted to 22 and the “Partial Response %” value is reported as 10%. Further, the “proliferation of CD8+ T cells in the presence of Tregs treated with Compound I” value in the test on CD8+ T cells is “dose-dependent increase in proliferation”. The “phospho-Rb level in Tregs” value in the test with CDK4/6-Rb pathway is given as “dose-dependent down-regulation”. Further, the “expression of genes Il2, Il18, and Lta (positive regulation of interferon-gamma production)” value in the test with MC38 tumors (FIGS. 25-27) is listed as “Up-regulated”. Also, the “expression of genes Cdkn1a, Cxcl1, Il6, Il10, Il19, Ptgs2 (reactive oxygen species metabolism)” value in the test with MC38 tumors (FIGS. 32-37) was “Down-regulated”. In addition, the anti-tumor efficacy result in the test on CT26 tumor is listed as “consistently enhanced anti-tumor efficacy”. Further, the “anti-tumor effect (tumor volume)” value in the test with MC38 tumor was “does not enhance the anti-tumor effect and, in fact, causes some attenuation”.
